In ChEMBL document CHEMBL4308877, “Thiazole, thio and semicarbazone derivatives against tropical infective diseases: Chagas disease, human African trypanosomiasis (HAT), leishmaniasis, and malaria” (Eur J Med Chem, 2019):

What was measured:
[1] = test system: Trypanosoma brucei brucei; experiment: Anti-parasitic activity against Trypanosoma brucei brucei 427 after 72 hrs by Alamar Blue assay; format: functional, organism-based; details: Trypanosoma brucei, 427, 72 h
[2] = Selectivity index, ratio of LC50 for salina eggs to IC50 for Trypanosoma brucei brucei 427; format: toxicity; details: Artemia salina (brine shrimp), read-out: Ratio IC50
Leishmania amazonensis [3] = experiment: Anti-parasitic activity against promastigote stage of Leishmania amazonensis WHOM/00 LTB 0016 after 96 hrs; format: functional, organism-based; details: WHOM/00 LTB 0016, 96 h
[4] = Selectivity index, ratio of CC50 for mouse macrophages to IC50 for promastigote stage of Leishmania amazonensis WHOM/00 LTB 0016; format: toxicity; details: read-out: Ratio CC50/IC50
Leishmania amazonensis [5] = experiment: Anti-parasitic activity against amastigote stage of Leishmania amazonensis WHOM/00 LTB 0016 infected in mouse macrophages after 24 hrs; format: functional, organism-based; details: WHOM/00 LTB 0016, 24 h
[6] = Selectivity index, ratio of CC50 for mouse macrophages to IC50 for amastigote stage of Leishmania amazonensis WHOM/00 LTB 0016; format: toxicity; details: read-out: Ratio CC50/IC50
Trypanosoma brucei [7] = experiment: Anti-parasitic activity against wild type Trypanosoma brucei; format: functional, organism-based
[8] = Selectivity index, ratio of IC50 for human SK-N-SH cells to IC50 for wild type Trypanosoma brucei; format: toxicity; details: read-out: Ratio IC50
Trypanosoma brucei [9] = experiment: Anti-parasitic activity against type 1 nitroreductase over-expressing Trypanosoma brucei; format: functional, organism-based
[10] = Selectivity index, ratio of IC50 for human THP1 cells to IC50 for Trypanosoma brucei overexpressing the type 1 nitroreductase; format: toxicity; details: read-out: Ratio IC50
Trypanosoma cruzi [11] = experiment: Anti-parasitic activity against amastigote stage of Trypanosoma cruzi Tulahuen CL2 infected in human MRC5 cells after 7 days by […] reporter gene assay; format: functional, organism-based; details: Tulahuen CL2, MRC5, 168 h
[12] = Selectivity index, ratio of cytotoxic activity for African green monkey Vero cells to IC50 for amastigote stage of Trypanosoma cruzi Tulahuen CL2; format: toxicity
Leishmania panamensis = experiment: Anti-parasitic activity against amastigote stage of EGFP-fused Leishmania panamensis MHOM/CO/87/UA140 infected in human U-937 cells after 72 hrs by flow cytometric analysis; format: functional, organism-based; details: MHOM/CO/87/UA140, U-937, 72 h
[13] = Selectivity index, ratio of EC50 for human U-937 cells to IC50 for amastigote stage of EGFP-fused Leishmania panamensis MHOM/CO/87/UA140; format: toxicity; details: read-out: Selectivity Index
Leishmania amazonensis [14] = experiment: Anti-parasitic activity against promastigote stage of Leishmania amazonensis MHOM/BR/Josefa […] after 72 hrs by Neubauer chamber method; format: functional, organism-based
[15] = Selectivity index, ratio of CC50 for mouse J774A1 cells to IC50 for promastigote stage of Leishmania amazonensis MHOM/BR/Josefa; format: toxicity; details: read-out: Ratio CC50/IC50
Leishmania amazonensis [16] = experiment: Anti-parasitic activity against axenic amastigote stage of Leishmania amazonensis MHOM/BR/Josefa […] after 72 hrs by Neubauer chamber method; format: functional, organism-based
[17] = Selectivity index, ratio of CC50 for mouse J774A1 cells to IC50 for axenic amastigote stage of Leishmania amazonensis MHOM/BR/Josefa; format: toxicity; details: read-out: Ratio CC50/IC50
Leishmania amazonensis [18] = experiment: Anti-parasitic activity against amastigote stage of Leishmania amazonensis MHOM/BR/Josefa infected in BALB/c mouse Peritoneal macrophages after 48 hrs by Giemsa staining-based method; format: functional, organism-based
[19] = Selectivity index, ratio of CC50 for mouse J774A1 cells to IC50 for amastigote stage of Leishmania amazonensis infected in BALB/c mouse Peritoneal macrophages; format: toxicity; details: read-out: Ratio CC50/IC50
Trypanosoma cruzi [20] = experiment: Anti-parasitic activity against epimastigote stage of Trypanosoma cruzi Tulahuen 2 measured at day 5; format: functional, organism-based; details: Tulahuen 2, 120 h
Trypanosoma cruzi [21] = experiment: Anti-parasitic activity against amastigote stage of Trypanosoma cruzi Sylvio X-10 infected in African green monkey Vero cells after 72 hrs by Giemsa-staining based assay; format: functional, organism-based; details: Sylvio X-10, Vero
MKN-45 = experiment: Cytotoxicity against human MKN45 cells assessed as reduction in cell viability after 72 hrs by MTT assay; format: functional, cell-based; details: MKN-45, 72 h
HT-29 = experiment: Cytotoxicity against human HT-29 cells assessed as reduction in cell viability after 72 hrs by MTT assay; format: functional, cell-based; details: HT-29, 72 h
MDA-MB-231 = experiment: Cytotoxicity against human MDA-MB-231 cells assessed as reduction in cell viability after 72 hrs by MTT assay; format: functional, cell-based; details: MDA-MB-231, 72 h
A549 = experiment: Cytotoxicity against human A549 cells assessed as reduction in cell viability after 72 hrs by MTT assay; format: functional, cell-based; details: A549, 72 h

Structure (SMILES): S=C(NN=C(c1ccccc1)c1ccccc1)Nc1ccccc1
- IC50 [1]: 8.48 µM
- selectivity ratio [2]: 43.2

Structure (SMILES): NC(=S)N/N=C(/COc1ccccc1)c1ccc(Cl)cc1
- IC50 (Leishmania amazonensis [3]): 4.9 µM
- selectivity ratio [4]: 22.8
- IC50 (Leishmania amazonensis [5]): 40.3 µM
- selectivity ratio [6]: 2.77

Structure (SMILES): CC(=O)Nc1ncc([N+](=O)[O-])s1 [NITHIAMIDE]
- IC50 (Trypanosoma brucei [7]): 4.67 µM
- selectivity ratio [8]: > 21
- IC50 (Trypanosoma brucei [9]): 0.58 µM
- selectivity ratio [10]: 149

Structure (SMILES): CCOc1cccc2sc(N(Cc3cccnc3)C(=O)C3CCCCC3)nc12
- IC50 (Trypanosoma cruzi [11]): 0.16 µM
- selectivity ratio [12]: > 200

Structure (SMILES): Nc1ccccc1/C(=N\NC(=S)Nc1ccccc1)c1ccccc1
- IC50 [1]: 2.83 µM
- selectivity ratio [2]: 15

Structure (SMILES): O=C(N/N=C1\CC(c2ccccc2)Sc2ccccc21)c1ccncc1 (stereo not given)
- EC50 (Leishmania panamensis): 16.4 µM
- selectivity ratio [13]: 33.9

Structure (SMILES): CC1=CC[C@@H](C(C)(C)NC(=S)N/N=C/c2ccc([N+](=O)[O-])cc2)CC1
- IC50 (Leishmania amazonensis [14]): 3.8 µM
- selectivity ratio [15]: 23.4
- IC50 (Leishmania amazonensis [16]): 8 µM
- selectivity ratio [17]: 11.1
- IC50 (Leishmania amazonensis [18]): 7.7 µM
- selectivity ratio [19]: 11.5

Structure (SMILES): C=CCn1c(C(=O)N2CCN(C/C=C/c3ccccc3)CC2)cs\c1=N/N=C/C=C/c1ccco1
- IC50 (Trypanosoma cruzi [20]): 3.1 µM
- EC50 (Trypanosoma cruzi [21]): 0.7 µM

Structure (SMILES): COc1ccc(/C(COc2ccccc2)=N\NC(N)=S)cc1
- IC50 (Leishmania amazonensis [3]): 3.5 µM
- selectivity ratio [4]: 44.4
- IC50 (Leishmania amazonensis [5]): 34.3 µM
- selectivity ratio [6]: 4.5

Structure (SMILES): CCCC(=O)Nc1ncc([N+](=O)[O-])s1
- IC50 (Trypanosoma brucei [7]): 6.47 µM
- selectivity ratio [8]: > 15
- IC50 (Trypanosoma brucei [9]): 0.64 µM
- selectivity ratio [10]: > 156

Structure (SMILES): COc1cc2c(Oc3ccc(/C=N/NC(=O)Nc4ccccc4F)cc3F)ccnc2cc1OCCCN1CCCCC1
- IC50 (MKN-45): 0.016 µM
- IC50 (HT-29): 0.059 µM
- IC50 (MDA-MB-231): 0.77 µM
- IC50 (A549): 0.009 µM

Structure (SMILES): CCCCC(=O)Nc1ncc([N+](=O)[O-])s1
- IC50 (Trypanosoma brucei [7]): 4.32 µM
- selectivity ratio [8]: > 23
- IC50 (Trypanosoma brucei [9]): 0.57 µM
- selectivity ratio [10]: > 175
